Results as given in BindingDB's records for doi:10.1016/j.bmcl.2019.126806 (Temple University, 2020).

Target: T1, Lysosomal acid glucosylceramidase (Homo sapiens, UniProt P04062)
T1 sequence (P04062 whole entry): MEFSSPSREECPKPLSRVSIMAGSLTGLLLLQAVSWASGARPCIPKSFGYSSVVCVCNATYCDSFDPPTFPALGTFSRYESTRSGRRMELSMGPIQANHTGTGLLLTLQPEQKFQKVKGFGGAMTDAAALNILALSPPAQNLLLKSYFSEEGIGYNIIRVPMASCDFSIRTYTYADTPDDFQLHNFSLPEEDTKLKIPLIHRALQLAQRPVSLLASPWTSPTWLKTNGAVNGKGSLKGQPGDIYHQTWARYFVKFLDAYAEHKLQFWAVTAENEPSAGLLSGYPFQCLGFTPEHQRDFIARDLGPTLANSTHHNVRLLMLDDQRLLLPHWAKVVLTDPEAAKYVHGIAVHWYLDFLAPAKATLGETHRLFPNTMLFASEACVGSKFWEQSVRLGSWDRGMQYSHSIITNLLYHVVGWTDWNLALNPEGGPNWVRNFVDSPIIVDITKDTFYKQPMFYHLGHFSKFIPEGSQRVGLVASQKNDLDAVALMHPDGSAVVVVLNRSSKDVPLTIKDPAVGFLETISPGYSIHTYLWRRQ
Experiment: Chaperone activity at GCase in wild-type human fibroblasts assessed as increase in GPN-induced reduction of calcium release using Fluo-8AM based fluorescence assay

With `CCCCC(C(=O)c1ccc(OCCN(C)C)cc1)c1ccccc1C(C)C` (centres undefined) as the molecule, how does the EC50 read?
The EC50 was 0.7 µM.

How did the EC50 turn out when `CC(C)CC(C(=O)c1ccc(OCCN(C)C)cc1)c1ccccc1C(C)C` (centres undefined) was run?
Its EC50 is 1.1 µM.

How did the EC50 turn out when `C/C=C/c1ccccc1C(CCCC)C(=O)c1ccc(OCCN(C)C)cc1` (centres undefined) was run?
The EC50 was 1.1 µM.

Which EC50 does the source give for `CC(C)CC(C(=O)c1ccc(OCCN(C)C)cc1)c1ccccc1C1CC1` (centres undefined) here?
Its EC50 is 1.1 µM.
